{
  "source": "patent US12310933B2",
  "about": "“Treatment of demyelinating disorders” (The University of Chicago, priority 2013, dated 2025)",
  "key": {"[1]": {"test_system": "differentiating rat oligodendrocyte precursor cells (drOPCs)", "test": "FDA/PI (fluorescein-diacetate/propidium iodide) live/dead cell viability assay, IFN-γ challenge", "assay_type": "cell-based", "text": "Interferon-γ is an inflammatory cytokine that is thought to contribute to multiple sclerosis exacerbations, therefore, treatment of cultured cells of the oligodendrocyte lineage with interferon-γ provides a useful cellular model of MS-related inflammation. drOPCs were isolated and purified to >95% homogeneity from 6-7 day old Sprague-Dawley rat cortices by immunopanning as previously described (Chan et al. 2004 Neuron 43:2; 183-191). Briefly, rat cortices were extracted, diced, and digested with papain at 37° C. Cells were then triturated and resuspended in panning buffer containing insulin, then sequentially immunopanned at room temperature on three plates containing Ran-2, GalC, and O4 antibodies from hybridomal supernatant. The remaining O4^+GalC^− OPCs were removed from the plates with trypsin, resuspended in growth media, and seeded at 37° C. onto pDL-coated flasks to facilitate proliferation. Once sufficient numbers were reached, OPCs were split, plated in differentiation media at 200,000 cells/well, and allowed to differentiate for 24 hours. […] Following 48 hours of treatment, media was removed and the cells were incubated in FDA/PI (fluorescein-diacetate/propidium iodide) for 3 minutes, rinsed with 1×PBS, and imaged for live/dead cell quantification. In living cells, non-fluorescent FDA is converted into fluorescein, giving off a bright green fluorescence. PI is membrane impermeable and therefore excluded from live cells. Therefore, green cells indicate viable cells and red cells indicate non-viable cells. […] Treatment with 200 U/ml IFN-γ alone reduced the number of green cells and increased the number of red cells (C). […] FIG. 2B illustrates the quantitation of the experiment in FIG. 2a. […] Treatment with IFN-γ alone caused a roughly 40-50% decrease in cell survival. […] Data is presented as the mean+/−SEM for an N=3/group. (*p<0.05, **p<0.005)"}, "[2]": {"test_system": "C57BL/6J mice with experimental autoimmune encephalitis (EAE)", "test": "Chronic EAE (MOG35-55), clinical scores and symptom onset", "assay_type": "in vivo, mouse"}, "[3]": {"test_system": "SJL mice with remitting/relapsing EAE", "test": "Remitting/relapsing EAE (PLP139-151), clinical scores", "assay_type": "in vivo, mouse"}, "[4]": {"test_system": "C57BL/6J mice with chronic EAE", "test": "Guanabenz/interferon co-administration in chronic EAE, onset of clinical symptoms", "assay_type": "in vivo, mouse", "details": "for onset of clinical symptoms: daily from post immunization day 7", "text": "Eight week old C57BL/6J female mice were immunized with MOG35-55/CFA to induce chronic EAE. […] Mice were scored daily for clinical symptoms (0=healthy, 1=flaccid tail, 2=ataxia and/or paresis of hindlimbs, 3=paralysis of hindlimbs and/or paresis of forelimbs, 4=tetraparalysis, 5=moribund or death). […] Onset of clinical symptoms began at approximately day 12 in saline-treated mice and at approximately day 13 in mice treated with interferon alone. […] While preferred embodiments of the present invention have been shown and described herein, it will be obvious to those skilled in the art that such embodiments are provided by way of example only. Numerous variations, changes, and substitutions will now occur to those skilled in the art without departing from the invention. It should be understood that various alternatives to the embodiments of the invention described herein may be employed in practicing the invention. It is intended that the following claims define the scope of the invention and that methods and structures within the scope of these claims and their equivalents be covered thereby."}, "[5]": {"test_system": "cultured rat cerebellar slices", "test": "Myelin basic protein and toluidine blue staining of ex vivo cultured cerebellar slices treated with IFN-γ", "assay_type": "cell-based", "details": "seven days", "method": "Briefly, cerebellar sections were prepared from 6 day old Sprague-Dawley rat pups. […] Two to three sections were collected per well and grown in growth media with Fungizone. […] Sections were then stained for myelin-basic protein (A-E) and toluidine blue (F-H), used to visualize myelin and neuronal cytoarchitecture."}, "[6]": {"test_system": "differentiating rat oligodendrocyte precursor cells (drOPCs)", "test": "TUNEL assay for IFN-γ induced apoptosis", "assay_type": "cell-based", "method": "Cells were isolated as described previously and plated in chamber slides at 20,000 cells/chamber. Cells were then treated with the same IFN-γ and guanabenz protocol as described previously, then subjected to a TUNEL assay. […] FIG. 3B illustrates the quantitation of the experiment in FIG. 3a. […] Error bars represent mean±SEM for an N=3/group (*p<0.05, **p<0.005, ***p<0.0005)"}, "[7]": {"details": "5.0 μM guanabenz co-treatment with IFN-γ"}, "[8]": {"details": "interferon-beta 5,000 U/day/mouse alone"}},
  "data": [
    {"molecule": "N=C(N)N/N=C/c1c(Cl)cccc1Cl", "note": "[guanabenz]", "values": [
      {"measurement": "cell viability (green/red cells, FDA/PI)", "setting": "[1]; 1.25 μM guanabenz + 200 U/ml IFN-γ, 48 hours", "result": "partially restored viability"},
      {"measurement": "increase in cell survival compared to IFN-γ alone", "setting": "[1]; 1.25 μM guanabenz + IFN-γ", "result": "roughly 25%"},
      {"measurement": "cell viability (green/red cells, FDA/PI)", "setting": "[1]; 2.5 μM guanabenz + 200 U/ml IFN-γ, 48 hours", "result": "partially restored viability"},
      {"measurement": "increase in cell survival compared to IFN-γ alone", "setting": "[1]; 2.5 μM guanabenz + IFN-γ", "result": "roughly 25%"},
      {"measurement": "cell survival (FIG. 2B)", "setting": "[1]; 5.0 μM guanabenz + IFN-γ", "result": "increased survival almost to control levels"},
      {"measurement": "cell viability (green and red cells, FDA/PI)", "setting": "[1]; 5.0 μM guanabenz alone, no IFN-γ, 48 hours", "result": "does not impact cell viability"},
      {"measurement": "percent survival (FIG. 2B)", "setting": "[1]; guanabenz alone vs untreated control", "result": "comparable percent survival"},
      {"measurement": "clinical score by days post symptom onset", "setting": "[2]; 4 mg/kg/day", "result": "Neither 4 mg/kg/day nor 16 mg/kg/day caused a significant reduction in clinical score"},
      {"measurement": "average symptom onset", "setting": "[2]; 4 mg/kg/day IP from PID 7", "result": 19, "unit": "days"},
      {"measurement": "clinical score by days post symptom onset (symptom severity)", "setting": "[2]; 8 mg/kg/day", "result": "significantly reduced symptom severity"},
      {"measurement": "average symptom onset", "setting": "[2]; 8 mg/kg/day IP from PID 7", "result": "about 22 days"},
      {"measurement": "clinical score by days post symptom onset", "setting": "[2]; 16 mg/kg/day", "result": "Neither 4 mg/kg/day nor 16 mg/kg/day caused a significant reduction in clinical score"},
      {"measurement": "average symptom onset", "setting": "[2]; 16 mg/kg/day IP from PID 7", "result": "about 25 days"},
      {"measurement": "delay in symptom onset", "setting": "[2]; all guanabenz doses (4-16 mg/kg/day), IP daily from PID 7", "result": "significant delay in symptom onset"},
      {"measurement": "average decrease in relapse severity", "setting": "[3]; 8 mg/kg IP daily from beginning of remission", "result": "about 50%"},
      {"measurement": "average decrease in relapse severity", "setting": "[3]; 16 mg/kg IP daily from onset of remission", "result": "about 40%"},
      {"measurement": "symptom severity during the remission phase, compared to vehicle", "setting": "[3]; 16 mg/kg/day IP", "result": "greater decrease in symptom severity during the remission phase"},
      {"measurement": "onset of clinical symptoms", "setting": "[4]; guanabenz 8 mg/kg alone", "result": "~18", "unit": "days"},
      {"measurement": "myelin fiber and axonal structure", "setting": "[5]; 2.5 μM guanabenz + 100 U/ml IFN-γ", "result": "restored intact, long myelin fiber and axonal structure"},
      {"measurement": "myelin fiber and axonal structure", "setting": "[5]; 5.0 μM guanabenz + 100 U/ml IFN-γ", "result": "restored intact, long myelin fiber and axonal structure"},
      {"measurement": "myelin fiber and axonal structure", "setting": "[5]; 10.0 μM guanabenz + 100 U/ml IFN-γ", "result": "restored intact, long myelin fiber and axonal structure"},
      {"measurement": "IFN-γ induced apoptosis (TUNEL, photomicrographs)", "setting": "[6]; [7]", "result": "reduced IFN-γ induced apoptosis"},
      {"measurement": "reduction of IFN-γ induced apoptosis compared to IFN-γ alone", "setting": "[6]; [7]", "result": "about 87.5%"}
    ]},
    {"molecule": "IFN-γ: inflammatory cytokine used to challenge cultured oligodendrocyte lineage cells and cerebellar slices (protein, UniProt P01579 24-161, looked up) Interferon gamma: QDPYVKEAENLKKYFNAGHSDVADNGTLFLGILKNWKEESDRKIMQSQIVSFYFKLFKNFKDDQSIQKSVETIKEDMNVKFFNSNKKKRDDFEKLTNYSVTDLNVQRKAIHELIQVMAELSPAAKTGKRKRSQMLFRG", "values": [
      {"measurement": "decrease in cell survival", "setting": "[1]; IFN-γ alone, 200 U/ml, 48 hours", "result": "40-50%"},
      {"measurement": "increase in apoptosis compared to control cells", "setting": "[6]; IFN-γ alone", "result": "2-3 fold"}
    ]},
    {"molecule": "interferon-beta (protein, UniProt P01575 22-182, looked up) Interferon beta: INYKQLQLQERTNIRKCQELLEQLNGKINLTYRADFKIPMEMTEKMQKSYTAFAIQEMLQNVFLVFRNNFSSTGWNETIVVRLLDELHQQTVFLKTVLEEKQEERLTWEMSSTALHLKSYYWRVQRYLKLMKYNSYAWMVVRAEIFRNFLIIRRLTRNFQN", "values": [
      {"measurement": "delay of onset of clinical symptoms", "setting": "[4]; [8]", "result": "did not significantly delay onset of clinical symptoms"},
      {"measurement": "onset of clinical symptoms", "setting": "[4]; [8]", "result": "~13", "unit": "days"}
    ]}
  ]
}
